Test results reported in ChEMBL document CHEMBL2401685 (Bioorg Med Chem Lett, 2013).
The source made the active and inactive calls. The calls are words filed in the database; no cut-off is given here.

What was measured:
[1] = target: T1, 11-beta-hydroxysteroid dehydrogenase 1 (Homo sapiens, UniProt P28845); assay: Inhibition of 11beta-HSD1 in human liver microsomes using [3H]-cortisone as substrate assessed as formation of cortisol after 60 to 90 mins by radiometric analysis; parameters: species or system Microsome
Target sequence in this assay (P28845 whole entry): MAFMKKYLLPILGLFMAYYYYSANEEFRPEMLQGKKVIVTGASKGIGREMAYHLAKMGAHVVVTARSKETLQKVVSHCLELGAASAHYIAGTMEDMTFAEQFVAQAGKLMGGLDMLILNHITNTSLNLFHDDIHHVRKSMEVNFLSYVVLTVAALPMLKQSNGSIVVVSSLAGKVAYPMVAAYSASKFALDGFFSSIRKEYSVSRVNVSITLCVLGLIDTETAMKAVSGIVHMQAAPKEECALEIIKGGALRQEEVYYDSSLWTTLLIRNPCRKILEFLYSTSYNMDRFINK

[2] = target: 11-beta-hydroxysteroid dehydrogenase 1 (Rattus norvegicus) (UniProt P16232); assay: Inhibition of 11beta-HSD1 in rat testis microsomes using [3H]-11-DHC as substrate assessed as formation of CORT at 100 uM after 60 to 90 mins by radiometric analysis relative to control; conditions: Microsome
Chain of 11-beta-hydroxysteroid dehydrogenase 1 (Rattus norvegicus) (P16232 whole entry, looked up): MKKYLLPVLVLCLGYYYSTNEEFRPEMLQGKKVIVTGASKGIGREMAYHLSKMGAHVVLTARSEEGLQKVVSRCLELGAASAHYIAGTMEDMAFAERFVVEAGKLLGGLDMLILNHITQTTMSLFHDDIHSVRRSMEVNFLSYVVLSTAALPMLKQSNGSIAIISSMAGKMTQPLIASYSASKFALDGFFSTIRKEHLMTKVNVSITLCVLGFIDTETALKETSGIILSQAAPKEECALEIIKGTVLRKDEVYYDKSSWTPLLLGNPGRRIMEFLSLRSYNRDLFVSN

[3] = target: T2, 11-beta-hydroxysteroid dehydrogenase type 2 (Homo sapiens) (UniProt P80365); assay: (§1) Inhibition of 11beta-HSD2 in human kidney microsomes using [3H]-cortisol as substrate assessed as formation of cortisone at 100 uM after 30 mins by radiometric analysis relative to control; conditions: Microsome
T2 sequence (whole entry): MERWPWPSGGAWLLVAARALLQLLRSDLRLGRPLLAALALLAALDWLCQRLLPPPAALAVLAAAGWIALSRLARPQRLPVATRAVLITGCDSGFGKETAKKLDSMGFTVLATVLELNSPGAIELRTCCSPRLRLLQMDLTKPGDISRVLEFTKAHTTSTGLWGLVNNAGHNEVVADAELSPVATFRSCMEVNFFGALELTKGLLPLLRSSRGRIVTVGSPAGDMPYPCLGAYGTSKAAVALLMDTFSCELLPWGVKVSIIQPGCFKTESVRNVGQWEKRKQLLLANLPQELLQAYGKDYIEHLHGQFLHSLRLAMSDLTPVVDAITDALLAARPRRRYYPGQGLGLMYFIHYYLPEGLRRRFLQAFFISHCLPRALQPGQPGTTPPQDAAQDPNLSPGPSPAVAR

[4] = target: T3, 11-beta-hydroxysteroid dehydrogenase 1 (Rattus norvegicus, UniProt P16232); assay: Inhibition of 11beta-HSD1 in Sprague-Dawley rat leydig cells […]
T3 sequence (P16232 whole entry): as the sequence (P16232 whole entry, looked up) above

[5] = target: T1, 11-beta-hydroxysteroid dehydrogenase 1; assay: Ratio of curcumin IC50 to compound IC50 for human 11beta-HSD1 transfected in CHOP cells; format: cell-based
Target sequence in this assay (P28845 whole entry, looked up): as the sequence (P28845 whole entry) above

[6] = target: T1, 11-beta-hydroxysteroid dehydrogenase 1; assay: Inhibition of human 11beta-HSD1 transfected in CHOP cells; format: cell-based
Target sequence in this assay (P28845 whole entry): as above

[7] = target: T4, 11-beta-hydroxysteroid dehydrogenase type 2 (Rattus norvegicus) (UniProt P50233); assay: Inhibition of 11beta-HSD2 in rat kidney microsomes using [3H]-CORT as substrate assessed as formation of 11-DHC at 100 uM after 30 mins by radiometric analysis relative to control; conditions: Microsome
T4 sequence (whole entry): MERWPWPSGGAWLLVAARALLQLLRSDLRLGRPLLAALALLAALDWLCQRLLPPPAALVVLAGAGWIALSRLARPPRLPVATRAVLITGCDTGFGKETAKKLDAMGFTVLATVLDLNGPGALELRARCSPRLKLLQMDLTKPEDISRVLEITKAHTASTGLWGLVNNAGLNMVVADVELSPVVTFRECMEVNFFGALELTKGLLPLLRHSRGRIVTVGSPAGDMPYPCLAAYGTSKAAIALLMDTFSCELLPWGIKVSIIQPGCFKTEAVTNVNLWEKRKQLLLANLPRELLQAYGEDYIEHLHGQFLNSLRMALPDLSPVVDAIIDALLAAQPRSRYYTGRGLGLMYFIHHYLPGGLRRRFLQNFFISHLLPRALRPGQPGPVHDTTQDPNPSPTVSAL

[8] = target: T3, 11-beta-hydroxysteroid dehydrogenase 1; assay: Inhibition of 11beta-HSD1 in rat testis microsomes using [3H]-11-DHC as substrate assessed as formation of CORT after 60 to 90 mins by radiometric analysis; parameters: species or system Microsome
J774.A1 = assay: (§2) Antiinflammatory activity in mouse J774A1 cells assessed as LPS-induced TNFalpha production at 10 uM incubated 2 hrs prior to LPS challenge measured after 24 hrs by ELISA relative to vehicle-treated control; format: functional
[9] = target: T1, 11-beta-hydroxysteroid dehydrogenase 1; assay: Inhibition of 11beta-HSD1 in human liver microsomes using [3H]-cortisone as substrate assessed as formation of cortisol at 100 uM after 60 to 90 mins by radiometric analysis relative to control; conditions: Microsome
Target sequence in this assay (P28845 whole entry, looked up): as the sequence (P28845 whole entry) above

[10] = target: T1, 11-beta-hydroxysteroid dehydrogenase 1; assay: Inhibition of human 11beta-HSD1 transfected in CHOP cells at 100 uM relative to control; format: cell-based
Target sequence in this assay (P28845 whole entry, looked up): as the sequence (P28845 whole entry) above

[11] = target: 11-beta-hydroxysteroid dehydrogenase 1 (Rattus norvegicus) (UniProt P16232); assay: Inhibition of 11beta-HSD1 in Sprague-Dawley rat leydig cells […] relative to control; conditions: 100 uM
[12] = Cytotoxicity against rat leydig cells; format: cell-based
[13] = Cytotoxicity against CHOp cells; format: cell-based, Cricetulus griseus; conditions: chinese hamster
[14] = as §2; format: functional; conditions: J774.A1
[15] = target: T1, 11-beta-hydroxysteroid dehydrogenase 1; assay: Competitive inhibition of 11beta-HSD1 in human liver microsomes at 1 to 10 uM by Lineweaver-burk plot analysis in presence of cortisone; conditions: Microsome
Target sequence in this assay (P28845 whole entry, looked up): as the sequence (P28845 whole entry) above

[16] = target: T5, 11-beta-hydroxysteroid dehydrogenase type 2 (Homo sapiens, UniProt P80365); assay: as §1; parameters: species or system Microsome
T5 sequence (P80365 whole entry): T2 sequence (whole entry)

Row | IC50 [1] | inhibition [2] | inhibition [3] | IC50 [4] | Ratio IC50 [5] | IC50 [6] | inhibition [7] | IC50 [8] | inhibition [9] | inhibition [10] | inhibition [11] | inhibition [15] | IC50 [16] | SMILES | inhibition (J774.A1) | Activity [12] | Activity [13] | inhibition at 10 µM [14]
1 | 4.42 µM | 41% | 44% | 986 nM | 5 | 832 nM | 7% |  |  |  |  |  |  | O=C(/C=C/c1ccc(O)cc1)/C=C/c1ccc(O)cc1 |  |  |  | 
2 | 3.51 µM |  | 23% | 1150 nM | 9 | 97 nM | 3% | 0.599 µM |  |  |  |  |  | O=C1/C(=C/c2cccc(Br)c2)CC/C1=C\c1cccc(Br)c1 |  |  |  | 
3 |  | 13% | 13% | 17200 nM |  |  | 24% |  | 36% | 54% |  |  |  | O=C(/C=C/c1ccc(OC2CCCCO2)cc1)/C=C/c1ccc(OC2CCCCO2)cc1 (stereo not drawn) | inactive |  |  | 
4 |  | 35% | 13% |  |  |  | 23% |  | 21% | 14% | 42% |  |  | COc1cc(/C=C2\CCC/C(=C\c3cc(OC)c(OC)c(OC)c3)C2=O)cc(OC)c1OC | inactive |  |  | 
5 |  | 13% | 0% |  |  |  | 11% |  | 26% | 26% | 18% |  |  | COc1cc(/C=C2\CC/C(=C\c3ccc(OC4CCCCO4)c(OC)c3)C2=O)ccc1OC1CCCCO1 (stereo not drawn) | inactive |  |  | 
6 | 1.94 µM | 63% | 0% | 633 nM | 5 | 195 nM | 24% |  |  |  |  |  |  | O=C1/C(=C/c2ccc(O)cc2)CCC/C1=C\c1ccc(O)cc1 |  |  |  | 
7 | 17.4 µM |  | 26% | 3470 nM | 9 | 310 nM | 9% | 22 µM |  |  |  |  |  | O=C1/C(=C/c2ccc(F)cc2)CC/C1=C\c1ccc(F)cc1 | inactive |  |  | 
8 | 70.9 µM |  | 39% | 292 nM | 5 | 257 nM | 35% | 16.1 µM |  |  |  |  |  | COc1cc(/C=C/C(=O)/C=C/c2ccc(O)c(OC)c2)ccc1O |  |  |  | 
9 | 6.11 µM |  | 36% | 1450 nM | 9 | 144 nM | 22% | 2.88 µM |  |  |  |  |  | O=C1/C(=C/c2ccccc2Br)CC/C1=C\c1ccccc1Br |  |  |  | 
10 | 0.529 µM |  | 53% | 129 nM | 9 | 115 nM | 39% | 0.288 µM |  |  |  | Active |  | O=C(/C=C/c1ccccc1Br)/C=C/c1ccccc1Br |  | Non-toxic | Non-toxic | > 50%
11 |  | 0% | 1% |  |  |  | 11% |  | 16% | 40% | 5% |  |  | COc1cc(/C=C/C(=O)/C=C/c2cc(OC)c(OC)c(OC)c2)cc(OC)c1OC | inactive |  |  | 
12 |  | 2% | 26% | 229 nM | 9 | 507 nM | 22% |  | 37% |  |  |  |  | O=C(/C=C/c1ccc(F)cc1)/C=C/c1ccc(F)cc1 | inactive |  |  | 
13 |  | 45% | 17% |  |  |  | 48% |  | 14% | 28% | 28% |  |  | O=C1/C(=C/c2ccc(OC3CCCCO3)cc2)CCC/C1=C\c1ccc(OC2CCCCO2)cc1 (stereo not drawn) | inactive |  |  | 
14 |  |  | 6% |  |  |  | 14% | 65.4 µM | 37% | 40% | 8% |  |  | COc1cc(/C=C2\CCC/C(=C\c3ccc(OC4CCCCO4)c(OC)c3)C2=O)ccc1OC1CCCCO1 (stereo not drawn) |  |  |  | 
15 | 1.11 µM |  | 33% | 148 nM | 9 | 346 nM | 39% | 0.218 µM |  |  |  |  |  | O=C1/C(=C/c2ccccc2Br)CCC/C1=C\c1ccccc1Br |  | Non-toxic | Non-toxic | > 50%
16 |  | 11% | 0% |  |  |  | 13% |  | 30% | 9% | 22% |  |  | O=C1/C(=C/c2ccc(OC3CCCCO3)cc2)CC/C1=C\c1ccc(OC2CCCCO2)cc1 (stereo not drawn) | inactive |  |  | 
17 | 2.97 µM |  | 24% | 1110 nM | 9 | 263 nM | 16% | 13.5 µM |  |  |  |  |  | O=C1/C(=C/c2ccc(F)cc2)CCC/C1=C\c1ccc(F)cc1 | inactive |  |  | 
18 | 16 µM |  |  | 3920 nM |  | 4500 nM |  | 4.12 µM |  |  |  |  | 15.7 µM | COc1cc(/C=C/C(=O)CC(=O)/C=C/c2ccc(O)c(OC)c2)ccc1O [CURCUMIN] | inactive |  |  | 
19 |  | 0% | 0% |  |  |  | 1% |  | 15% | 16% | 13% |  |  | CN(C)c1ccc(/C=C2\CC/C(=C\c3ccc(N(C)C)cc3)C2=O)cc1 | inactive |  |  | 
20 |  | 0% | 6% |  |  |  | 10% |  | 14% | 14% | 27% |  |  | CCOc1ccc(/C=C2\CC/C(=C\c3ccc(OCC)cc3)C2=O)cc1 |  |  |  | < 50%
